From patent US20250066389A1, “HETEROCYCLIC AMIDES AND METHODS OF USING THE SAME” (Rgenta Therapeutics, Inc., priority 2021, published 2025)
Counter-ions that a name gives are not always drawn.

system: PMS1; test: Mini-Gene Reporter Assay—PMS1 (firefly luciferase mini-gene reporter transiently transfected into HEK293 cells); type: cell-based; conditions: Homo sapiens; mini-gene firefly luciferase reporter in HEK293 cells
In short: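 HEK293 cells transiently transfected with a mini-gene construct (skipped exon with flanking introns/exons fused to firefly luciferase, pcDNA3.1) are incubated with compounds in duplicate. Exon inclusion raises luminescence; EC50 fitted by Levenberg-Marquardt; effect also scored at 5 μM.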

IC50 [µM]	SMILES
1 to 10	CCOc1nc2nc(C)cn2cc1C(=O)Nc1ccc(N2CCNCC2)nn1 [Compound 732, 7-ethoxy-2-methyl-N-(6-(piperazin-1-yl)pyridazin-3-yl)imidazo[1,2-a]pyrimidine-6-carboxamide formate]
1 to 10	CCOc1cc2nc(C)cn2cc1C(=O)Nc1ccc(N2CCC(NC(C)(C)C)C2)nn1 (centres unmarked) [Compound 733, N-(6-(3-(tert-butylamino)pyrrolidin-1-yl)pyridazin-3-yl)-7-ethoxy-2-methylimidazo[1,2-a]pyridine-6-carboxamide]
1 to 10	CCOc1cc2nn(C)cc2cc1C(=O)Nc1cnc(N2CCNC(C)(C)C2)cn1 [Compound 734, N-(5-(3,3-dimethylpiperazin-1-yl)pyrazin-2-yl)-6-ethoxy-2-methyl-2H-indazole-5-carboxamide hydrochloride]
1 to 10	COc1cc2nn(C)cc2cc1C(=O)Nc1cnc(N2CCN[C@@H](C)C2)cn1 [Compound 736, (S)-6-methoxy-2-methyl-N-(5-(3-methylpiperazin-1-yl)pyrazin-2-yl)-2H-indazole-5-carboxamide hydrochloride]
1 to 10	CCOc1cc2nc(C)cn2cc1C(=O)Nc1ccc(N2CCN(C)[C@@H](C)C2)nn1 [Compound 737, (S)—N-(6-(3,4-dimethylpiperazin-1-yl)pyridazin-3-yl)-7-ethoxy-2-methylimidazo[1,2-a]pyridine-6-carboxamide formate]
1 to 10	CCOc1cc2nn(C)cc2cc1C(=O)Nc1ccc(N2CCN3CCC[C@H]3C2)nn1 [Compound 738, (S)-6-ethoxy-N-(6-(hexahydropyrrolo[1,2-a]pyrazin-2(1H)-yl)pyridazin-3-yl)-2-methyl-2H-indazole-5-carboxamide]
1 to 10	CCOc1cc2nn(C)cc2cc1C(=O)Nc1ccc(N2CCN3CCC[C@@H]3C2)nn1 [Compound 739, (R)-6-ethoxy-N-(6-(hexahydropyrrolo[1,2-a]pyrazin-2(1H)-yl)pyridazin-3-yl)-2-methyl-2H-indazole-5-carboxamide formate]
1 to 10	CCOc1cc2nc(C)cn2cc1C(=O)Nc1ccc(N2C[C@@H](C)N(C)[C@@H](C)C2)nn1 [Compound 740, 7-ethoxy-2-methyl-N-(6-((3S,5R)-3,4,5-trimethylpiperazin-1-yl)pyridazin-3-yl)imidazo[1,2-a]pyridine-6-carboxamide]
1 to 10	CCOc1cc2nc(C)cn2cc1C(=O)Nc1cc(C)c(N2CCN[C@@H](C)C2)nn1 [Compound 741, (S)-7-ethoxy-2-methyl-N-(5-methyl-6-(3-methylpiperazin-1-yl)pyridazin-3-yl)imidazo[1,2-a]pyridine-6-carboxamide formate]
1 to 10	CCOc1nc2nn(C)cc2cc1C(=O)Nc1cnc(N2CCNCC2)cn1 [Compound 742, 6-ethoxy-2-methyl-N-(5-(piperazin-1-yl)pyrazin-2-yl)-2H-pyrazolo[3,4-b]pyridine-5-carboxamide hydrochloride]
1 to 10	CCOc1cc2nn(C)cc2cc1C(=O)Nc1cnc(N2CCN(C)[C@@H](C)C2)cn1 [Compound 743, (S)—N-(5-(3,4-dimethylpiperazin-1-yl)pyrazin-2-yl)-6-ethoxy-2-methyl-2H-indazole-5-carboxamide formate]
1 to 10	CCOc1cn2nc(C)cc2cc1C(=O)Nc1cnc(N2C[C@@H](C)N[C@@H](C)C2)cn1 [Compound 744, N-(5-((3S,5R)-3,5-dimethylpiperazin-1-yl)pyrazin-2-yl)-6-ethoxy-2-methylpyrazolo[1,5-a]pyridine-5-carboxamide hydrochloride]
1 to 10	CCOc1cc2nc(C)cn2cc1C(=O)Nc1ccc(N2CC3CN(C)CC3C2)nn1 (centres unmarked) [Compound 745, 7-ethoxy-2-methyl-N-(6-(5-methylhexahydropyrrolo[3,4-c]pyrrol-2(1H)-yl)pyridazin-3-yl)imidazo[1,2-a]pyridine-6-carboxamide formate]

SMILES	IC50 [µM]
COc1cc2nc(C)cn2cc1C(=O)Nc1ccc(C2CCNCC2)cn1 [Compound 735, 7-methoxy-2-methyl-N-(5-(piperidin-4-yl)pyridin-2-yl) imidazo[1,2-a]pyridine-6-carboxamide hydrochloride]	1 to 10
